Entries after “also recorded” stand apart in the source; their conditions may differ. Read-outs that look alike come from different tables or passages of the source.
How the values were obtained:
[1] = system: Leishmania donovani (Strain LV9); test: In vivo activity of liposomal preparation of compound 1, parasite loads in liver and spleen; parameters: species or system BALB/c mice; settings: 46.1 μg compound 1, tail vein, one week after treatment
Protocol: Liposomes were made by rehydration of a lipid cake. First, hydrogenated soy phosphatidylcholine (Avanti Polar Lipids, Inc., Alabaster, Ala.), cholesterol (Avanti Polar Lipids), 1,2-distearoyl-sn-glycero-3-[phospho-rac-(1-glycerol)] (“DSPG”; Avanti Polar Lipids,), and α-tocopherol (Sigma-Aldrich Corporation, St. Louis, Mo.) were dissolved in a chloroform and methanol (9:1, v/v). Compound 1 was dissolved in the lipid solution at a weight ratio of compound 1 to lipid of 1:9 (i.e. for clarity, the solution comprised 10% by weight of compound 1 and 90% by weight of the lipid solution). The solution was placed on at rotary evaporator for about 30 minutes and the liquid was completely evaporated. The lipids were reconstituted into liposomes in deionized water (3 mL) for 30 minutes in a 60° C. water bath, followed by 3 freeze-thaw cycles. […] Loading of liposomes was verified and quantified by HPLC. […]
One week after the treatment, the mice were euthanized and parasite loads in the liver and spleen were determined. Parasite loads in the spleen and liver were quantified as previously described (Murray, H. W. 2000. Infect Immun. 68: 6294-6299). Briefly, the liver and spleen impression smears were stained using Giemsa and parasite loads we quantified microscopically. LDU is determined by the number of amastigotes per 1000 nuclei multiplied by the weight (gm) of the liver or spleen. […]

[2] = system: L. mexicana amastigotes in bone marrow-derived macrophages; test: Amastigote assay in infected bone marrow-derived macrophages; assay type: cell-based, Leishmania mexicana; settings: for IC50: Leishmania mexicana, BMDM, in Mus musculus, 48 h, read-out: Amastigote IC50, 48 hours, infected BMDM from C57BL/6 mice; for antileishmanial activity against the amastigote stage (in words): 48 h treatment
Source text: Bone marrow derived macrophages were obtained from C57BL/6 mice. Bone marrow-derived macrophages (BMDM) (0.5×10^6) were adhered on top of glass rounded coverslips deposited at the bottom of individual plate's well (24 well tissue culture plate, Corning, Inc.). Next, macrophages were infected overnight with 2.5×10^6 stationary phase promastigotes of the L. mexicana (ratio 5:1). After this period, cells were extensively washed with Hank's balanced salt solution (HBSS) to eliminate non-phagocytosed parasites, and, after treatment with test compounds for 48 hours, cells were stained with Giemsa stain (Sigma). In each experiment, infection rates were recorded by counting the number of parasites in 100 macrophages on each slide in triplicate in a blinded fashion.

[3] = system: intracellular parasites (L. mexicana amastigotes); test: Electron microscopy of treated intracellular parasites; assay type: cell-based, Leishmania mexicana; settings: 100 μM, 2 h
Protocol: Intracellular parasites were co-cultured, as previously described herein, by treating a 100 μM concentration of each pure compound for 2 h and suspending them in glutaraldehyde. Samples were further processed in an electron microscopy unit as follows: Incubation steps were carried out on a Lab-Line orbital shaker operating at 700 rpm (Barnstead/Thermolyne, Melrose Park, Ill.). After the initial fixation in 3% buffered glutaraldehyde, cell pellets were washed twice with sodium cacodylate buffer (pH 7.4, 10 minutes each) and spun down after each wash at 1500 rpm for 5 min. Cell samples were then post-fixed in 1% osmium tetroxide in sym-collidine buffer (pH 7.6) for 1 h at room temperature. Following two washes with sym-collidine buffer (10 min each) the cell pellet was stained with a saturated aqueous uranyl acetate solution (pH 3.3) for 1 h. Cell pellets were dehydrated in a graded EtOH series up to absolute (10 min each). Acetone was used as the transitional solvent, two changes for 10 min each. The cell suspensions were infiltrated overnight with a 1:1 mixture of acetone and Spurr's epoxy resin (Electron Microscopy Sciences, Fort Washington, Pa.). Finally, cell pellets were placed into BEEM™ embedding capsules containing 100% Spurr's resin. Polymerization of epoxy blocks was carried out at 70° C. overnight. Polymerized blocks were sectioned with a Leica Ultraut UCT ultramicrotome (Leica Microsystem GmbH, Wein, Austria). Methylene Blue-Basic Fuschin stained semi-thin (750 nm) sections were evaluated and two representative areas were thin-sectioned for ultrastructural examination. Ultrathin (80 nm) sections were collected on 200 mesh copper grids (Electron Microscopy Sciences) and post-stained with lead citrate (3 min).

[4] = system: splenocytes stimulated with L. donovani antigen; test: Splenocyte T cell proliferation (Alamar blue) and cytokine ELISA after L. donovani antigen stimulation; assay type: in vivo, BALB/c mice; settings: liposomal preparation
Protocol: One week after the treatment, the mice were euthanized and parasite loads in the liver and spleen were determined. Parasite loads in the spleen and liver were quantified as previously described (Murray, H. W. 2000. Infect Immun. 68: 6294-6299). Briefly, the liver and spleen impression smears were stained using Giemsa and parasite loads we quantified microscopically. LDU is determined by the number of amastigotes per 1000 nuclei multiplied by the weight (gm) of the liver or spleen. At this time, spleen cell suspensions were prepared and these cells were stimulated in vitro with 20 microgram/ml of Leishmania donovani antigen for 48-72 hrs to stimulate lymphocyte release. Proliferation of spleen cells were determined by Alamar blue assays and levels of cytokines including IFN-gamma in supernatant were quantified by ELISA using commercially available reagents from Biolegend and BD Biosciences.
T cell proliferation was determined as previously described (Rosas, L. E., et al., 2006. Am. J. Pathol. 168: 158-169.). Briefly, 5×10^5 cells were added in quadruplicate to the wells of sterile 96-well, flat-bottom tissue culture plates and stimulated with freeze-thawed L. donovani Ag (20 μg/ml). The proliferation responses were measured by Alamar blue assay (Ansar-Ahmed, A., et al., 1994. J. Immunol. Methods 170: 211-214.). Supernatants were collected after 72 hours of incubation at 37° C. and analyzed for the production of IFN-γ and IL-10 by standard ELISA methods (BD Pharmingen, Inc., San Diego, Calif.).

[5] = system: promastigotes of L. mexicana; test: Promastigote assay (L. mexicana, flow cytometry with propidium iodide); assay type: cell-based, Leishmania mexicana; settings: for antileishmanial activity against promastigotes (in words): 48 h exposure; for IC50: Leishmania mexicana, 48 h, linear regression from 1, 10, 50 and 100 μg/mL
Protocol: Leishmania mexicana (MNYC/BZ/62/M379) was maintained by serial passage of amastigotes inoculated subcutaneously into the shaven rumps of 129SvE mice and was obtained by in vitro culture of amastigotes in RPMI-1640 supplemented with 10% fetal calf serum (FCS, Sigma-Aldrich Corporation, St. Louis, Mo.) and incubated at 28° C. All work including experimental animals was approved by the Institutional Animal Care and Use Committee (IACUC) of The Ohio State University.
One million log phase promastigotes of L. mexicana were seeded in 1 mL of complete RPMI-1640 medium, and parasite numbers, and their mobility and morphology were measured from 24 and 48 h. This was performed by flow cytometry measurements using experimental and control groups of parasites stained with propidium iodide and with Quillaja saponaria saponin as positive control, as reported in the literature. The test compounds isolated from P. andrieuxii were compared with a positive control: sodium stibogluconate, a pentavalent antimonial drug.

[6] = 48 hours in culture, read-out: Promastigote IC50

Row | SMILES | IC50 [2] [µM] | electron microscopy findings in intracellular parasites [3] | antileishmanial activity against promastigotes (in words) [5] | IC50 [5, 6] [µM] | antileishmanial activity against the amastigote stage (in words) [2] | also measured
1 | C=C(CCC=C(C)C)[C@H]1CC[C@H]2[C@@H]3CCC4=CC(=O)CC[C@]4(C)[C@H]3CCC12C (stereo in doubt) [Compound 1, (8S,9S,10R,13R,14S,17R)-cholest-4,20,24-trien-3-one] | 3.3 | morphological abnormalities and destruction of the amastigotes | significant leishmanicidal activity; also recorded: inhibitory effects | 30 | – | parasite load in hepatic cells [1]: decreased parasite load; parasite load in splenic cells [1]: decreased parasite load; levels of IL-10 secreted from splenocytes ([4]; Leishmanial antigen stimulation): no significant change; secretion of IFN-γ from splenocytes ([4]; Leishmanial antigen stimulation, P value<0.01): significant increase; T cell proliferation of splenocytes upon Leishmanial antigen stimulation ([4]; vs group without compound 1, P value<0.0001): significant increase; activity relative to cholest-4-en-3-one (4), promastigote bioassay [5]: almost three times more active
2 | C=C(CC[C@@H](C)[C@H]1CC[C@H]2[C@@H]3CCC4=CC(=O)CC[C@]4(C)[C@H]3CC[C@]12C)C(C)C [Compound 3, 24-methylcholesta-4,24(28)-dien-3-one] | 3.5 | morphological abnormalities and destruction of the amastigotes | significant leishmanicidal activity; also recorded: inhibitory effects | 24 | – | –
3 | CC(C)CCC[C@@H](C)[C@H]1CC[C@H]2[C@@H]3CCC4=CC(=O)CC[C@]4(C)[C@H]3CC[C@]12C [Compound 4, cholest-4-en-3-one] | 0.03 | morphological abnormalities and destruction of the amastigotes | inhibitory effects | 81 | – | potency relative to pentostam, amastigote stage ([2]; ratio of IC50 values): ~100 times
4 | CC[C@H](/C=C/[C@@H](C)[C@H]1CC[C@H]2[C@@H]3CCC4=CC(=O)CC[C@]4(C)[C@H]3CC[C@]12C)C(C)C [Compound 5, stigmast-4,22-dien-3-one] | – | – | inactive | – | inactive | –
5 | CC[C@H](CC[C@@H](C)[C@H]1CC[C@H]2[C@@H]3CCC4=CC(=O)CC[C@]4(C)[C@H]3CC[C@]12C)C(C)C [Compound 6, stigmast-4-en-3-one] | – | – | inactive | – | inactive | –
6 | C=C(CCC=C(C)C)[C@H]1CC[C@H]2[C@@H]3CC=C4C[C@@H](O)CC[C@]4(C)[C@H]3CC[C@]12C [Compound 7, cholest-5,20,24-trien-3β-ol] | 14.5 | – | inactive | > 262 | significant activity; also recorded: active | –
7 | CC(=O)C1=CC[C@H]2[C@@H]3CCC4=CC(=O)CC[C@]4(C)[C@H]3C[C@@H](O)[C@]12C [Compound 15, 6,7-dihydroneridienone] | – | morphological abnormalities and destruction of the amastigotes | potent; also recorded: inhibitory effects | – | – | –
8 | CC(=O)C1=CC[C@H]2[C@@H]3C=CC4=CC(=O)CC[C@]4(C)[C@H]3C[C@@H](O)[C@]12C [Compound 16, neridienone] | – | morphological abnormalities and destruction of the amastigotes | significant leishmanicidal activity; also recorded: inhibitory effects | – | – | IC50 ([5]; read-out: Promastigote IC50, 48 hours in culture): 9.2 µM

Reference: patent US10174072B2, “Antileishmanial compositions and methods of use” (Ohio State Innovation Foundation, priority 2011, dated 2019)
